Drawing on ChEMBL document CHEMBL5291721, “A preclinical secondary pharmacology resource illuminates target-adverse drug reaction associations of marketed drugs” (Nat Commun, 2023), this text covers AC50 for 20 compounds.

Test [1] has as its target T1, Alpha-1A adrenergic receptor (Homo sapiens, UniProt P35348).
T1 sequence (P35348 whole entry): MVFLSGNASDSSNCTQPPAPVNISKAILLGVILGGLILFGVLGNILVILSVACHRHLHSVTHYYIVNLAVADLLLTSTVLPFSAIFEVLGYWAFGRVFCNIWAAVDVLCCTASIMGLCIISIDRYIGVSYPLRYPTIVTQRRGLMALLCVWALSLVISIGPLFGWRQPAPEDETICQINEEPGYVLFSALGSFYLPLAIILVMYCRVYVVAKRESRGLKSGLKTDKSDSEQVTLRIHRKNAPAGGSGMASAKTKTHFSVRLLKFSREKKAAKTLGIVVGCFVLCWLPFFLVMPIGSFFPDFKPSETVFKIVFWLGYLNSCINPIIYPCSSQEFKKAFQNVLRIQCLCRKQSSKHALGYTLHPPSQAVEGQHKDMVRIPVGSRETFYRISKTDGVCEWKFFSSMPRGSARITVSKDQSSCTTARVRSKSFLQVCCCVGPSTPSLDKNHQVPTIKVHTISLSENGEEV
The format is functional, cell-based.

The target of test [2] is Beta-2 adrenergic receptor (Homo sapiens, UniProt P07550). The format is functional, cell-based.
Test [3] has as its target T2, Endothelin-1 receptor (Homo sapiens, UniProt P25101).
T2 sequence (P25101 whole entry): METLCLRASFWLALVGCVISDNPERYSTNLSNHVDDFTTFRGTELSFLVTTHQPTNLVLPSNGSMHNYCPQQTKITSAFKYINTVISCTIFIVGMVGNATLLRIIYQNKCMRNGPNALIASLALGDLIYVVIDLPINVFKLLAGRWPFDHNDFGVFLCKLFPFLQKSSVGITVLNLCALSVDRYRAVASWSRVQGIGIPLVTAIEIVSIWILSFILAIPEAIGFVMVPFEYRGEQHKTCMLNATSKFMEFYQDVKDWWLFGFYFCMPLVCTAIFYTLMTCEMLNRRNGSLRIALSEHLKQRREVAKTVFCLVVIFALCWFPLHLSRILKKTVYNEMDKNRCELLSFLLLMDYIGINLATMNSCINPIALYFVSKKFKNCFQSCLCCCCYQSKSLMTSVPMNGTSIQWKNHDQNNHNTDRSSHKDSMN

The target in test [4] is T3, Estrogen receptor (Homo sapiens, UniProt P03372).
T3 sequence (P03372 whole entry): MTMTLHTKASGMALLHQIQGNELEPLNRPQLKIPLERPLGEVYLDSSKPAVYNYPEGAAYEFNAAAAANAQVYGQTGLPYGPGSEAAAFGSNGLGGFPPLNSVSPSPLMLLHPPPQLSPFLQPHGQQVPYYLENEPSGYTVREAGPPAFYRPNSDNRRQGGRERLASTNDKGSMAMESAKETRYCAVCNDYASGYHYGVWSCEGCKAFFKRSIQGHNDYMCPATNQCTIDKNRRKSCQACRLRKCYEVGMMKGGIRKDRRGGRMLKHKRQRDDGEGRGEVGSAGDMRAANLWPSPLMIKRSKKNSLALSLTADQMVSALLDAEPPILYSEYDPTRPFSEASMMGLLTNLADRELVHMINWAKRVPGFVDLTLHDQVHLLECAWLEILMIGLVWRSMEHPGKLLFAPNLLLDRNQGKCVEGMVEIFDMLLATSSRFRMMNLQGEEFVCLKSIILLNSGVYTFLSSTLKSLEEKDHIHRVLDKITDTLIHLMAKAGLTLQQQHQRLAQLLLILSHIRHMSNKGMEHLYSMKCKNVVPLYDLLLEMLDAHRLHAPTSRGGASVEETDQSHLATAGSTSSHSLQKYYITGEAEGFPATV

The target of test [5] is Melanocortin receptor 4 (Homo sapiens, UniProt P32245).
Test [6] addresses Kappa-type opioid receptor (Homo sapiens, UniProt P41145).
For test [7], the target named is Mu-type opioid receptor (Homo sapiens, UniProt P35372).
Test [8] addresses T4, Amine oxidase [flavin-containing] A (Homo sapiens, UniProt P21397).
T4 sequence (P21397 whole entry): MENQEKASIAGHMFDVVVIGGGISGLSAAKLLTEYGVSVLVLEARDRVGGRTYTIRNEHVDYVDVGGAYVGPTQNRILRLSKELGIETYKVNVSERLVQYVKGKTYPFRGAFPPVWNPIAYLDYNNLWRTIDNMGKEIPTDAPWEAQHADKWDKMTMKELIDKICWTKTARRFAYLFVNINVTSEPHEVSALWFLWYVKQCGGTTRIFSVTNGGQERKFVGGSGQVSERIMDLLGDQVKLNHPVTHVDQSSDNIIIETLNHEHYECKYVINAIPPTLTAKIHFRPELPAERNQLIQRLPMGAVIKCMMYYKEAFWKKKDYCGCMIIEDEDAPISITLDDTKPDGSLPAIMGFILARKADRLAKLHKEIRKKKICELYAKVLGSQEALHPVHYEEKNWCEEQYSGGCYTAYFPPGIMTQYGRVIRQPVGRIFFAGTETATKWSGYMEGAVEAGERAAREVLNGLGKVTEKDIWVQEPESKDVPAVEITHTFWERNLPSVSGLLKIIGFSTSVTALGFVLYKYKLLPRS
The format is functional.

The target in test [9] is 3',5'-cyclic-AMP phosphodiesterase 4A (Homo sapiens, UniProt P27815). The format is functional.
Test [10] deals with T5, Prostaglandin G/H synthase 1 (Homo sapiens, UniProt P23219). The format is functional.
Test [11] deals with T5, Prostaglandin G/H synthase 1. It counts as functional. The source holds these as a separate data set.
The target of test [12] is Sodium-dependent dopamine transporter (Homo sapiens, UniProt Q01959).
In test [13] the target is T6, Thromboxane A2 receptor (Homo sapiens, UniProt P21731).
T6 sequence (P21731 whole entry): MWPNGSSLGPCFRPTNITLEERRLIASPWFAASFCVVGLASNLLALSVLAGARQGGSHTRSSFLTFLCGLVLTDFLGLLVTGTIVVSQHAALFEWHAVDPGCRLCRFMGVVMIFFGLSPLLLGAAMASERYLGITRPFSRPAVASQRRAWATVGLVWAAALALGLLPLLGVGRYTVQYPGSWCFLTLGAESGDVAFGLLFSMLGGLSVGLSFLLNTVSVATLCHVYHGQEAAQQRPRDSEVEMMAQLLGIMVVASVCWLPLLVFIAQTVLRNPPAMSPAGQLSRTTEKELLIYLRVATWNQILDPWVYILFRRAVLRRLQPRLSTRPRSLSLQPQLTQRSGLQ
It counts as functional, cell-based.
Further: assay procedure not described here.

Chain of Melanocortin receptor 4 (P32245 whole entry): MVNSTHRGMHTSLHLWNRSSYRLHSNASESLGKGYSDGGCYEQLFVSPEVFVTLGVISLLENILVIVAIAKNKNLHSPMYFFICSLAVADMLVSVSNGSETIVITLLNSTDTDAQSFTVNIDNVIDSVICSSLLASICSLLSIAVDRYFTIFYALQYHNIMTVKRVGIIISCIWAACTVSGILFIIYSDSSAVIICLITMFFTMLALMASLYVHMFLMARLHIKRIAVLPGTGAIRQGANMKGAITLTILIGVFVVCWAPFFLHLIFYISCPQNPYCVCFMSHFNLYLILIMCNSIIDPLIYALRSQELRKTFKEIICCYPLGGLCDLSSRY
Chain of Beta-2 adrenergic receptor (P07550 whole entry): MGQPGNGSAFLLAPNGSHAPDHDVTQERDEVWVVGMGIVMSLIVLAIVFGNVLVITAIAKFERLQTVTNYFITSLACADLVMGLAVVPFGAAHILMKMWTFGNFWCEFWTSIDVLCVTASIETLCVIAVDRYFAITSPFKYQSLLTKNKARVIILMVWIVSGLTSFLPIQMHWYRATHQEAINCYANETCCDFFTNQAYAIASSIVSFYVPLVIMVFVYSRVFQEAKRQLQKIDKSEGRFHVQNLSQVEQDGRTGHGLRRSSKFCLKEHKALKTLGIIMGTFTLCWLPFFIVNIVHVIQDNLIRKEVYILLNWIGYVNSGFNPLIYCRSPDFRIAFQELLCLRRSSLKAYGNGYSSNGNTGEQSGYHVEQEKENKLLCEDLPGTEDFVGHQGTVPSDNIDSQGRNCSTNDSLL
Chain of Kappa-type opioid receptor (P41145 whole entry): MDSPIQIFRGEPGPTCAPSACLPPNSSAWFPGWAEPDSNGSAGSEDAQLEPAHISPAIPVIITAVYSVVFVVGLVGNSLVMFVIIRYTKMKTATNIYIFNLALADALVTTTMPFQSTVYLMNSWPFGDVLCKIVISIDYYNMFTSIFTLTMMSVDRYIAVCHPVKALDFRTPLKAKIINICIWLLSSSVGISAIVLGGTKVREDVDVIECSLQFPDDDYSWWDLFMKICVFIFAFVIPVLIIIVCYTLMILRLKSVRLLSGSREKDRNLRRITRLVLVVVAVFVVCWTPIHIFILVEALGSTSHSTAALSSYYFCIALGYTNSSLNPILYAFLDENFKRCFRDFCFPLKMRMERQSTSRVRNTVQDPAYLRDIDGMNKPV
Chain of Mu-type opioid receptor (P35372 whole entry): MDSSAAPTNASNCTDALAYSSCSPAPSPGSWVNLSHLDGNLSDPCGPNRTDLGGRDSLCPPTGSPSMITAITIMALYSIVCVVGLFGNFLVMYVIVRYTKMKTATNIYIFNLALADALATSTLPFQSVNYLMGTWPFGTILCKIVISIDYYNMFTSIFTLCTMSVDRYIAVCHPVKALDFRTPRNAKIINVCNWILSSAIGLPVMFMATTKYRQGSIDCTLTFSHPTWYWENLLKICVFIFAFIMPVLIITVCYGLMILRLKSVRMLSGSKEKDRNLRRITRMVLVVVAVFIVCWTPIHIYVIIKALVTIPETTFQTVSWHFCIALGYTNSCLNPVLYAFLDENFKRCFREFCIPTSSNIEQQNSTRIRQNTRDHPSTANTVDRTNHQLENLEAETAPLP
T5 sequence (P23219 whole entry): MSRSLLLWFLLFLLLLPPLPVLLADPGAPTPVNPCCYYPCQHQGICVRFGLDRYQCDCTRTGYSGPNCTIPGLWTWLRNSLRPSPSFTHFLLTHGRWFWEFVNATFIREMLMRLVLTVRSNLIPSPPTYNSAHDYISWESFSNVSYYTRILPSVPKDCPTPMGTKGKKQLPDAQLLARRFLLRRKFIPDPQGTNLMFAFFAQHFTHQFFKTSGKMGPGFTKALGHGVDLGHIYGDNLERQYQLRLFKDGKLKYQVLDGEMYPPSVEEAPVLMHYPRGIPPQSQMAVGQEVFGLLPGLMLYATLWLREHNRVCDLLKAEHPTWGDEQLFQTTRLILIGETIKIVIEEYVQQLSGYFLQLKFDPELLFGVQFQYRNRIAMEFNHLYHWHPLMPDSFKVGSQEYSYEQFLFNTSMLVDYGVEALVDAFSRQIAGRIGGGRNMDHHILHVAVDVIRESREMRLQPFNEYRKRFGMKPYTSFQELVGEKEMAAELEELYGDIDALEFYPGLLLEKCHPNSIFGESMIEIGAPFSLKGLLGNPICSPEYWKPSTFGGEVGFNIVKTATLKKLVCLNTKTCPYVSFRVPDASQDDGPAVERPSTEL
Chain of 3',5'-cyclic-AMP phosphodiesterase 4A (P27815 whole entry): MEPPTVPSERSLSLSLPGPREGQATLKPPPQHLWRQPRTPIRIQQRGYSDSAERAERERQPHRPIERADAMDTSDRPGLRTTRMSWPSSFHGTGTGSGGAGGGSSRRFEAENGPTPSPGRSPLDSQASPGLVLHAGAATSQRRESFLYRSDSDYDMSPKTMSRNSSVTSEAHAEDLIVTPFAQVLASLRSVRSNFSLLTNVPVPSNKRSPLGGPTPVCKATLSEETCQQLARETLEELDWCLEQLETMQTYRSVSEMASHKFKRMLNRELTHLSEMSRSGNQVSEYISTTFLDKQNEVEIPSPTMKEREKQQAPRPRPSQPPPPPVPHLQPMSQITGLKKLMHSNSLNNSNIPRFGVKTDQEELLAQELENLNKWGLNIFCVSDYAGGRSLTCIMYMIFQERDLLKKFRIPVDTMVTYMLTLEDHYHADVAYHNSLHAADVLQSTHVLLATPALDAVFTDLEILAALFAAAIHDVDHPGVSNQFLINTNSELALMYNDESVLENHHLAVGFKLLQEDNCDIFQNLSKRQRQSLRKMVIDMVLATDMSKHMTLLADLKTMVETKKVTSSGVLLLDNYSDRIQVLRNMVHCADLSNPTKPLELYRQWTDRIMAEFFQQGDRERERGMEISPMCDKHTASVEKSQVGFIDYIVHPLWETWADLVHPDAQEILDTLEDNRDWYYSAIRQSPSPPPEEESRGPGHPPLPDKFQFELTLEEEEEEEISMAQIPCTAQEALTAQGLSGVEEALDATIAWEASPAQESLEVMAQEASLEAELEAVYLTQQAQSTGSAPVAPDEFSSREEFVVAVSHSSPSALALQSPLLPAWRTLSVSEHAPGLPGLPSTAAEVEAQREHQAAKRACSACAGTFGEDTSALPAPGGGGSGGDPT
Chain of Sodium-dependent dopamine transporter (Q01959 whole entry): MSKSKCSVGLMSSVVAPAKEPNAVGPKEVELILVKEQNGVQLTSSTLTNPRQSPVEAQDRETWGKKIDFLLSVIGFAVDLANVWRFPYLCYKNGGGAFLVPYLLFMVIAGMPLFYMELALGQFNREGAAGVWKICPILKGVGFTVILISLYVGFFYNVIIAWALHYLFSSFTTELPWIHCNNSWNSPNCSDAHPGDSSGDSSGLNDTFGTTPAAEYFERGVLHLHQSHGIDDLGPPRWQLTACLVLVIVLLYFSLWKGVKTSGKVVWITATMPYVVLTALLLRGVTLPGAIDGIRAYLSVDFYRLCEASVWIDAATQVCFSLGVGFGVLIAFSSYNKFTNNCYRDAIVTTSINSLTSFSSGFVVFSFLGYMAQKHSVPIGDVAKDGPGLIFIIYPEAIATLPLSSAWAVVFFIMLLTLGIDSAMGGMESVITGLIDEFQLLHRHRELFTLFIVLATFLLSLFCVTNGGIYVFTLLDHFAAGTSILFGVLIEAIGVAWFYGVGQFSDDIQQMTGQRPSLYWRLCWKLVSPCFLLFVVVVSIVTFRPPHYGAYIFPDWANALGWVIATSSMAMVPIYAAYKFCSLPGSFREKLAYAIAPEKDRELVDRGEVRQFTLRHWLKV

The AC50 is the concentration giving half of the maximal activity seen. Lower therefore signals greater potency. Regarding `CC12CC3CC(C)(C1)CC(N)(C3)C2` [MEMANTINE], the concentration at half-maximal activity (AC50) in test [1] was more than 30 µM; in test [2], more than 30 µM; in test [3], more than 30 µM; in [4], 1.6 µM; in test [5] it was more than 30 µM; in [6], 15.2 µM. In test [7], the AC50 was more than 10 µM.

Turning to `CN1CCC(=C2c3ccccc3CCc3cccnc32)CC1` [AZATADINE], the AC50 in test [1] is more than 30 µM; in test [2] it was more than 30 µM; in test [4] it was more than 30 µM; in test [5], more than 30 µM; in test [6] it was 9.38 µM; in [7] it was more than 30 µM.

On to `CCOC(=O)C1=C[C@]2(CC)CCCN3CCc4c(n1c1ccccc41)[C@@H]32` [VINPOCETINE], for which the AC50 in [1], in test [2], in [3] and in test [6] was more than 30 µM throughout.

Regarding `O=[N+]([O-])c1ccc(O)c2ncccc12` [NITROXOLINE], the AC50 in test [1] was more than 30 µM; in test [2], more than 30 µM; in test [8] it was more than 30 µM; in test [6], 9.3 µM; in test [9], more than 30 µM; in test [10], more than 30 µM. The half-maximal activity concentration (AC50) in [11], in [12] and in [13] was more than 30 µM each time.

As to `CCOC(=O)C1=C(C)NC(C)=C(C(=O)OC)C1c1cccc([N+](=O)[O-])c1` (centres undefined) [NITRENDIPINE], the AC50 in [1] is more than 30 µM; in [2], more than 30 µM; in test [3], more than 30 µM; in test [4], more than 30 µM; in [5], more than 30 µM; in test [6], more than 10 µM. Further, the AC50 in [7] was more than 30 µM.

For `CCC(=O)O[C@H]1CC[C@H]2[C@@H]3CCC4=CC(=O)CC[C@]4(C)[C@H]3CC[C@]12C` [TESTOSTERONE PROPIONATE], the AC50 was more than 30 µM in test [1]; more than 30 µM in [2]; more than 30 µM in [4]; more than 10 µM in test [5]; 7.71 µM in test [6]; more than 30 µM in [7].

Consider `CCCCC(=O)O[C@]1(C(=O)CO)[C@@H](C)C[C@H]2[C@@H]3CCC4=CC(=O)C=C[C@]4(C)[C@@]3(F)[C@@H](O)C[C@@]21C` [BETAMETHASONE VALERATE], for which the AC50 in [1] was more than 30 µM; in test [2], more than 30 µM; in test [4], more than 30 µM; in test [5] it was more than 30 µM; in test [6], more than 10 µM; in test [7], more than 30 µM.

With `Oc1ccc2c(c1)CC[C@H](c1ccccc1)[C@@H]2c1ccc(OCCN2CCCC2)cc1` [LASOFOXIFENE], the AC50 in test [2] is more than 30 µM; in test [3] it was more than 30 µM; in [6], 0.0849 µM.

For the compound `CC(N)C(O)c1ccccc1` (centres undefined) [PHENYLPROPANOLAMINE], the AC50 was more than 30 µM in [1]; more than 30 µM in test [2]; more than 30 µM in test [3]; more than 30 µM in [5]; more than 10 µM in test [6]; more than 10 µM in test [7].

For `C[C@]12CC[C@@H]3c4ccc(O)cc4C[C@@H](CCCCCCCCC[S+]([O-])CCCC(F)(F)C(F)(F)F)[C@H]3[C@@H]1CC[C@@H]2O` (some centres undefined) [FULVESTRANT], the half-maximal activity concentration (AC50) in test [1], in [2], in test [3] and in test [6] was more than 30 µM in each case.

Regarding `CC(=O)N[C@@H](CS)C(=O)O` [ACETYLCYSTEINE], the AC50 in [1], in test [2], in test [3], in [4] and in [6] was more than 30 µM in each case.

In the case of `CCCC(CCC)C(N)=O` [VALPROMIDE], the AC50 in test [1] was more than 30 µM; in [2] it was more than 30 µM; in test [4], more than 30 µM; in [5], more than 30 µM; in test [6] it was more than 10 µM; in test [7], more than 30 µM.

Take `CCC(C)C1(CC)C(=O)NC(=O)NC1=O` (centres undefined) [BUTABARBITAL]: the AC50 in [1], in test [2], in [3] and in [4] was more than 30 µM throughout.

For `C/N=C(\NC)NCc1ccccc1` [BETHANIDINE], the AC50 in test [1], in [2], in test [3], in [4] and in test [6] was more than 30 µM in each case.

For the compound `CNC1=Nc2ccc(Cl)cc2C(c2ccccc2)=[N+]([O-])C1` [CHLORDIAZEPOXIDE], the AC50 in test [1] was more than 30 µM; in test [2], more than 30 µM; in test [4] it was more than 30 µM; in test [5] it was more than 30 µM; in test [7], more than 10 µM.

Turning to `Cc1cc(C(C)(C)C)cc(C)c1CC1=NCCN1` [XYLOMETAZOLINE], the AC50 in [1] was 0.0023 µM; in test [2] it was more than 30 µM; in test [3] it was more than 30 µM; in test [4], more than 30 µM; in test [6] it was 20 µM.

As for `CN(C)CCCNc1c2ccccc2nc2cccc([N+](=O)[O-])c12` [NITRACRINE], the AC50 in [1], in [2], in [3], in [4] and in [6] was more than 30 µM throughout.

As to `CC(C(=O)O)c1ccc(CC2CCCC2=O)cc1` (centres undefined) [LOXOPROFEN], the half-maximal activity concentration (AC50) is more than 30 µM in test [1]; more than 30 µM in [2]; more than 30 µM in test [3]; more than 30 µM in [4]; 0.66 µM in test [6].

As to `CCC(C)C(CC)C(N)=O` (centres undefined) [VALNOCTAMIDE], the concentration at half-maximal activity (AC50) in test [1], in test [2], in [3], in test [4] and in test [6] was more than 30 µM in each case.

On to `CCOC(=O)c1cncn1[C@H](C)c1ccccc1` [ETOMIDATE], for which the AC50 in test [1] was more than 30 µM; in test [2], more than 30 µM; in [4], more than 10 µM; in [5] it was more than 10 µM; in [6], more than 10 µM; in [7], more than 30 µM.
